Measurements reported in patent US5837728A, “9-cis retinoic acid esters and amides and uses thereof” (priority 1995, dated 1998).

Key:
[1] = system: Human neonatal foreskin fibroblasts; test: Growth of human neonatal foreskin fibroblasts (cell number); format: cell-based; conditions: two days
Excerpt: (§1) Human neonatal foreskin keratinocytes and human neonatal foreskin fibroblasts were isolated and grown in monlayer culture. Culture medium for keratinocytes was Keratincyte Growth Medium (KGM) from Clonetics, Inc., San Diego. Calif. The culture medium for fibroblasts was Dulbecco's Modified Eagle's Medium (DMEM) supplemented with non-essential amino acids and 10% fetal bovine serum. The culture medium was obtained from GIBCO, Grand Island, N.Y. and the FBS was from Hyclone Labs, Inc., Logan, Utah.
Cells at passage 2-4 were plated in wells of a 24 well dish at approximately 5×10^4 cells per well in their respective culture medium. Incubation was at 37° C. with 5% CO2. After the cells attached and spread overnight, they were washed two times in serum-free keratincyte basal medium (KBM) and incubated in 1 ml of KBM or in 1 ml of KGM. Compound IV was added in varying concentrations to the wells. All-trans-retinoic acid (or no treatment) was added to control wells. The cells were incubated for an additional two days for fibroblasts and three days for keratinocytes, and were then harvested and counted. The effect of IV and of the controls are shown for both cell types in Tables 9 and 10: […]

[2] = system: Human neonatal foreskin keratinocytes; test: Growth of human neonatal foreskin keratinocytes (cell number); format: cell-based; conditions: three days
Excerpt: as §1
Cells at passage 2-4 were plated in wells of a 24 well dish at approximately 5×10^4 cells per well in their respective culture medium. Incubation was at 37° C. with 5% CO2. After the cells attached and spread overnight, they were washed two times in serum-free keratincyte basal medium (KBM) and incubated in 1 ml of KBM or in 1 ml of KGM. Compound IV was added in varying concentrations to the wells. […] The cells were incubated for an additional two days for fibroblasts and three days for keratinocytes, and were then harvested and counted.

[3] = system: partial-thickness skin wounds; conditions: cited from earlier work

For CC1=C(/C=C/C(C)=C/C=C/C(C)=C/C(=O)O)C(C)(C)CCC1 [all-trans-retinoic acid, reference compound], the Number of fibroblasts ([1]; 0.25 μg/ml) was 10.1 ± 0.2 × 10^4 cells, the Number of fibroblasts ([1]; 0.5 μg/ml) was 10.1 ± 0.1 × 10^4 cells and the Number of fibroblasts ([1]; 1.0 μg/ml) was 9.6 ± 0.1 × 10^4 cells. For the same compound, the “Number of keratinocytes, KGM” value ([2]; 0.25 μg/ml) was 24.7 ± 1.7 × 10^4 cells, the “Number of keratinocytes, KMB” value ([2]; 0.25 μg/ml) was 13.7 ± 1.6 × 10^4 cells and the “Number of keratinocytes, KGM” value ([2]; 0.5 μg/ml) was 17.7 ± 0.8 × 10^4 cells. For the same compound, the “Number of keratinocytes, KMB” value ([2]; 0.5 μg/ml) was 15.2 ± 0.1 × 10^4 cells, the “Number of keratinocytes, KMB” value ([2]; 1.0 μg/ml) was 12.3 ± 1.0 × 10^4 cells and the “Effect on healing when applied after wounding” value ([3]; applied after wounding) was “deleterious effect on healing”. The Rate of healing ([3]; pre-treated with 0.05% tretinoin cream for 10 days prior to wounding) was 6%.
